# Source: ChEMBL document CHEMBL1201862, “PubChem BioAssay data set” (2004)
# Where a name gives a salt, the structure may show the parent alone.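 Each compound was tested at five concentrations against cells in 96-well plates for 48 hours. The concentration for 50% growth inhibition is given as GI50.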 Calls of active or inactive are those of the source. Cut-off read from the data, not from the text of the source: active = GI50 up to about 1.1 µM and inactive = higher. Residues, ends and D or L forms follow the SMILES beside them. *: point of attachment. Boc = CC(C)(C)OC(=O)*
# How the values were obtained:
# Experiment in all cases: DTP human tumour cell line panel, 48 h
# CAKI-1 = system: CAKI-1
# DU-145 = system: DU-145
# EKVX = system: EKVX
# HCT-15 = system: HCT-15
# HOP-62 = system: HOP-62
# HOP-92 = system: HOP-92
# HT-29 = system: HT-29
# Hs-578T = system: Hs-578T
# MCF7 = system: MCF7
# MDA-MB-231 = system: MDA-MB-231
# MDA-MB-435 = system: MDA-MB-435
# MDA-N = system: MDA-N
# NCI-H23 = system: NCI-H23
# SF-268 = system: SF-268
# SF-539 = system: SF-539
# T47D = system: T47D
# U-251 = system: U-251
# UACC-257 = system: UACC-257
# SK-OV-3 = system: SK-OV-3
# BT-549 = system: BT-549
SMILES,GI50 (CAKI-1),GI50 (DU-145),GI50 (EKVX),GI50 (HCT-15) [µM],GI50 (HOP-62),GI50 (HOP-92),GI50 (HT-29),GI50 (Hs-578T),GI50 (MCF7),GI50 (MDA-MB-231),GI50 (MDA-MB-435),GI50 (MDA-N),GI50 (NCI-H23),GI50 (SF-268),GI50 (SF-539),GI50 (T47D),GI50 (U-251),GI50 (UACC-257),GI50 (SK-OV-3),GI50 (BT-549)
COc1cc2c3c([nH]c2c(OC)c1OC)CCN(Cc1ccccc1)C3,0.787 µM (active),> 100 µM (inactive),> 100 µM (inactive),31.9,93.5 µM (inactive),6.27 µM (inactive),11.4 µM (inactive),32.4 µM (inactive),18.1 µM (inactive),32.8 µM (inactive),15.6 µM (inactive),16.9 µM (inactive),33.1 µM (inactive),62.5 µM (inactive),17.7 µM (inactive),24.8 µM (inactive),31.8 µM (inactive),19.9 µM (inactive),–,–
CC(=O)c1c2c(cc3c1CC1(Cc4cc5c(cc4C1)CCCC5)C3)CCCC2,–,–,> 100 µM (inactive),36.1,> 100 µM (inactive),> 100 µM (inactive),50.9 µM (inactive),> 100 µM (inactive),19.4 µM (inactive),> 100 µM (inactive),16.9 µM (inactive),16.4 µM (inactive),68.5 µM (inactive),–,> 100 µM (inactive),> 100 µM (inactive),> 100 µM (inactive),13 µM (inactive),> 100 µM (inactive),–
O=C1NC(=S)NC(=O)C1C(c1ccc(Cl)cc1)C1C(=O)NC(=S)NC1=O.c1ccncc1,> 100 µM (inactive),> 100 µM (inactive),86.1 µM (inactive),> 100,> 100 µM (inactive),> 100 µM (inactive),> 100 µM (inactive),–,> 100 µM (inactive),> 100 µM (inactive),> 100 µM (inactive),> 100 µM (inactive),> 100 µM (inactive),–,–,> 100 µM (inactive),> 100 µM (inactive),> 100 µM (inactive),–,> 100 µM (inactive)
O=C(O)C1C2C=CC(C2)C1c1ccccc1 (centres undefined),> 100 µM (inactive),> 100 µM (inactive),> 100 µM (inactive),> 100,> 100 µM (inactive),> 100 µM (inactive),> 100 µM (inactive),> 100 µM (inactive),> 100 µM (inactive),> 100 µM (inactive),> 100 µM (inactive),> 100 µM (inactive),> 100 µM (inactive),> 100 µM (inactive),> 100 µM (inactive),> 100 µM (inactive),> 100 µM (inactive),> 100 µM (inactive),> 100 µM (inactive),–
COc1cc2c(c(OC)c1OC)-c1ccc(OC)c(=O)cc1C(NC(=O)CCCCCNc1ccc(N=[N+]=[N-])cc1[N+](=O)[O-])CC2 (centres undefined),0.299 µM (active),< 0.01 µM (active),< 0.0136 µM (active),0.0418,< 0.01 µM (active),–,< 0.01 µM (active),< 0.01 µM (active),< 0.01 µM (active),< 0.01 µM (active),< 0.01 µM (active),< 0.01 µM (active),< 0.01 µM (active),< 0.01 µM (active),< 0.01 µM (active),20.5 µM (inactive),< 0.01 µM (active),–,< 0.01 µM (active),–
Cc1ccc(S(=O)(=O)N/N=c2/sc3ccccc3n2C)cc1,> 100 µM (inactive),> 100 µM (inactive),> 100 µM (inactive),> 100,> 100 µM (inactive),> 100 µM (inactive),> 100 µM (inactive),> 100 µM (inactive),–,> 100 µM (inactive),> 100 µM (inactive),–,> 100 µM (inactive),> 100 µM (inactive),> 100 µM (inactive),> 100 µM (inactive),> 100 µM (inactive),> 100 µM (inactive),> 100 µM (inactive),–
Cc1ccc(C(=O)N/N=C(\N=N\c2cccc(Cl)c2)c2ccc(N(CCC#N)CCC#N)cc2C)cc1,> 100 µM (inactive),> 100 µM (inactive),> 100 µM (inactive),> 100,> 100 µM (inactive),> 100 µM (inactive),90.2 µM (inactive),–,> 100 µM (inactive),> 100 µM (inactive),> 100 µM (inactive),> 100 µM (inactive),> 100 µM (inactive),–,> 100 µM (inactive),69 µM (inactive),> 100 µM (inactive),> 100 µM (inactive),> 100 µM (inactive),> 100 µM (inactive)
COc1ccc(C(=O)O/N=C2/CCCCC2CN(C)C)cc1 (centres undefined),> 100 µM (inactive),–,> 100 µM (inactive),> 100,> 100 µM (inactive),> 100 µM (inactive),> 100 µM (inactive),–,–,–,–,–,> 100 µM (inactive),> 10 µM (inactive),> 100 µM (inactive),–,> 100 µM (inactive),> 100 µM (inactive),> 100 µM (inactive),–
COc1ccc(C(OCC2OC(n3ccc(NC(=O)c4ccccc4)nc3=O)C(O)C2O)(c2ccccc2)c2ccccc2)cc1 (centres undefined),2.93 µM (inactive),3.37 µM (inactive),2.72 µM (inactive),1.82,2.34 µM (inactive),–,1.53 µM (inactive),2.12 µM (inactive),2.22 µM (inactive),2.13 µM (inactive),2.63 µM (inactive),1.92 µM (inactive),1.32 µM (inactive),5.18 µM (inactive),2.34 µM (inactive),3.54 µM (inactive),1.92 µM (inactive),8.39 µM (inactive),7.28 µM (inactive),–
CN(C)Cc1cc(/C=C/C(=O)c2ccc(Br)cc2)cc(CN(C)C)c1O,8.47 µM (inactive),15.7 µM (inactive),20.2 µM (inactive),–,30.1 µM (inactive),–,18.8 µM (inactive),–,22.6 µM (inactive),14.7 µM (inactive),16.9 µM (inactive),17.1 µM (inactive),–,14.8 µM (inactive),13.1 µM (inactive),18.5 µM (inactive),–,17.2 µM (inactive),29.8 µM (inactive),15.1 µM (inactive)
COC(=O)C(Cc1c[nH]c2ccccc12)NC(=O)C(Cc1c[nH]c2ccccc12)NC(=O)C(Cc1c[nH]c2ccccc12)NC(=O)C(Cc1c[nH]c2ccccc12)NC(=O)C(Cc1c[nH]c2ccccc12)NC(=O)C(Cc1c[nH]c2ccccc12)NC(=O)OC(C)(C)C (centres undefined) (Boc-WWWWWW-OMe; configuration not given here),> 100 µM (inactive),32.9 µM (inactive),–,> 100,> 100 µM (inactive),–,> 100 µM (inactive),–,5.25 µM (inactive),> 100 µM (inactive),> 100 µM (inactive),41.6 µM (inactive),28.5 µM (inactive),50.4 µM (inactive),–,22.2 µM (inactive),54.7 µM (inactive),30.3 µM (inactive),–,44 µM (inactive)
CN[C@@H](C)[C@@H](O)c1ccccc1 [PSEUDOEPHEDRINE HYDROCHLORIDE],> 100 µM (inactive),> 100 µM (inactive),> 100 µM (inactive),> 100,> 100 µM (inactive),> 100 µM (inactive),> 100 µM (inactive),> 100 µM (inactive),> 100 µM (inactive),> 10 µM (inactive),> 100 µM (inactive),> 100 µM (inactive),> 100 µM (inactive),> 100 µM (inactive),> 100 µM (inactive),> 100 µM (inactive),> 100 µM (inactive),> 100 µM (inactive),–,–
